In patent US20080031967A1, “Compositions, products and methods for controlling weight in a mammal” (priority 2005, published 2008):

Legend:
primary rat adipocytes [1] = assay: thermogenesis assay: oxygen consumption by adipocytes (oxygen probe); assay type: cell-based; conditions: fatty acid oxidation inhibitors
Procedure: Thermogenesis was measured using an oxygen probe to monitor oxygen consumption by the adipocytes as they oxidize fatty acids. This assay was developed in primary rat adipocytes (isolated as above) using a YSI 5300 monitor equipped with oxygen-sensitive electrodes in an 8-chamber air tight apparatus. […] Since oxygen consumption can be induced by both the Kreb's cycle (glucose metabolism) and β-oxidation (fatty acid metabolism), fatty acid oxidation inhibitors were used to test whether the increase in oxygen consumption is indeed induced by fatty acid oxidation. Valproic acid inhibits the entry of fatty acid into the mitochondria and 4-pentenoic acid inhibits β-ketothiolase (the enzyme in the last step of β-oxidation). […] It has been discovered that the use of the above-listed thermogenic agents in accordance with the present invention results in the effective modulation of thermogenesis in mammals. By “effective,” it is meant that administration of the thermogenic agents of the present invention results in a 10 to 15% increase in thermogenic activity in the in vitro oxygen consumption assay. Without wishing to be bound by theory, it is believed that the thermogenic agents of the present invention function by increasing the rate at which fatty acids are transported into the mitochondria and oxidized in the cell.

isolated rat adipocytes = conditions: dissolved oxygen monitor; cited from earlier work
primary rat adipocytes [2] = conditions: validation compound, stated as known; cited from earlier work

With `CCCC(CCC)C(=O)O` [Valproic acid] the “effect on oxygen consumption induced by norepinephrine” value (primary rat adipocytes [1]) was “inhibit oxygen consumption induced by norepinephrine”.

For leptin: adipocyte-derived hormone, the “effect on beta-oxidation in adipocytes” value (isolated rat adipocytes) is given as “stimulates beta-oxidation”.

With `C=CCCC(=O)O` [4-pentenoic acid] the “effect on oxygen consumption induced by norepinephrine” value (primary rat adipocytes [1]) was “inhibit oxygen consumption induced by norepinephrine”.

In the case of `NC[C@H](O)c1ccc(O)c(O)c1` [norepinephrine], the “effect on rate of fatty acid oxidation and oxygen consumption” value (primary rat adipocytes [2]) is given as “increase the rate of fatty acid oxidation and oxygen consumption”.
